Laboratory results taken from the supplement of paper PMC4862054.

Columns and labels:
Conditions in all cases: incubation time: 72 h
HDQ-P1 [1] = assay: normalised response (% of control), CellTiter-Glo; higher = more viable cells (100 = DMSO, 0 = benzethonium chloride kill control)
In short: (§1)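 A 20 µl suspension of breast cancer cells was seeded into each well of 384-well plates containing compound at 5 concentrations in 10-fold steps over a compound-specific 10,000-fold range. After 72 h incubation, CellTox Green fluorescence (485/520 nm) was read first, and CellTiter-Glo luminescence was read after 10 min at room temperature. Each plate was normalised against 0.1 % DMSO (100) and a positive kill control (0), and each value is the normalised signal at one concentration.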

CAL-148 [2] = assay: as above
In short: as §1

DU-4475 [3] = assay: as above
In short: as §1

CAL-85-1 [4] = assay: as above
In short: as §1

HCC1937 [5] = assay: as above
In short: as §1

CAL-120 [6] = assay: as above
In short: as §1

SK-BR-3 = assay: as above
In short: as §1

CAL-51 [7] = assay: as above
In short: as §1

MCF-10A [8] = assay: as above
In short: as §1

MFM-223 [9] = assay: as above
In short: as §1

HCC1599 [10] = assay: as above
In short: as §1

BT-549 [11] = assay: as above
In short: as §1

MDA-MB-436 [12] = assay: as above
In short: as §1

MDA-MB-453 [13] = assay: as above
In short: as §1

MDA-MB-468 [14] = assay: as above
In short: as §1

BT-474 [15] = assay: as above
In short: as §1

MDA-MB-231 [16] = assay: as above
In short: as §1

HCC1143 [17] = assay: as above
In short: as §1

Hs578T [18] = assay: as above
In short: as §1

HDQ-P1 [19] = assay: normalised response (% of control), CellTox Green; higher = less cell death (100 = DMSO, 0 = benzethonium chloride kill control)
In short: as §1

CAL-148 [20] = assay: as above
In short: as §1

DU-4475 [21] = assay: as above
In short: as §1

CAL-85-1 [22] = assay: as above
In short: as §1

HCC1937 [23] = assay: as above
In short: as §1

CAL-120 [24] = assay: as above
In short: as §1

CAL-51 [25] = assay: as above
In short: as §1

MCF-10A [26] = assay: as above
In short: as §1

MFM-223 [27] = assay: as above
In short: as §1

HCC1599 [28] = assay: as above
In short: as §1

BT-549 [29] = assay: as above
In short: as §1

MDA-MB-436 [30] = assay: as above
In short: as §1

MDA-MB-453 [31] = assay: as above
In short: as §1

BT-474 [32] = assay: as above
In short: as §1

MDA-MB-231 [33] = assay: as above
In short: as §1

HCC1143 [34] = assay: as above
In short: as §1

Hs578T [35] = assay: as above
In short: as §1

MDA-MB-468 [36] = assay: as above
In short: as §1

Row | SMILES | normalised response (HDQ-P1 [1]) | normalised response (CAL-148 [2]) | normalised response (DU-4475 [3]) | normalised response (CAL-85-1 [4]) | normalised response (HCC1937 [5]) | normalised response (CAL-120 [6]) | normalised response (SK-BR-3) | normalised response (CAL-51 [7]) | normalised response (MCF-10A [8]) | normalised response (MFM-223 [9]) | normalised response (HCC1599 [10]) | normalised response (BT-549 [11]) | normalised response (MDA-MB-436 [12]) | normalised response (MDA-MB-453 [13]) | normalised response (MDA-MB-468 [14]) | normalised response (BT-474 [15]) | normalised response (MDA-MB-231 [16]) | normalised response (HCC1143 [17]) | normalised response (Hs578T [18]) | normalised response (HDQ-P1 [19]) | normalised response (CAL-148 [20]) | normalised response (DU-4475 [21]) | normalised response (CAL-85-1 [22]) | normalised response (HCC1937 [23]) | normalised response (CAL-120 [24]) | normalised response (CAL-51 [25]) | normalised response (MCF-10A [26]) | normalised response (MFM-223 [27]) | normalised response (HCC1599 [28]) | normalised response (BT-549 [29]) | normalised response (MDA-MB-436 [30]) | normalised response (MDA-MB-453 [31]) | normalised response (BT-474 [32]) | normalised response (MDA-MB-231 [33]) | normalised response (HCC1143 [34]) | normalised response (Hs578T [35]) | normalised response (MDA-MB-468 [36])
1 | CCCCCCCCCCCCCCCCCCOP(=O)([O-])OC1CC[N+](C)(C)CC1 [Perifosine] (250 nM) | 105% | 97.7% | 96.5% | 95.4% | 101% | 104% | 97.7% | 116% | 110% | 93.7% | 101% | 97% | 99.3% | 98.2% | 99.7% | 102% | 102% | 104% | 104% | 115% | 93.9% | 101% | 107% | 107% | 106% | 110% | 102% | 59.2% | 97.8% | 88.6% | 94.7% | 104% | 100% | 79.8% | 118% | 97.2% | 
2 | C[C@]12CC[C@@H]3c4ccc(O)cc4C[C@@H](CCCCCCCCC[S+]([O-])CCCC(F)(F)C(F)(F)F)[C@H]3[C@@H]1CC[C@@H]2O (some centres not stated) [Fulvestrant] (100 nM) | 104% | 97.4% | 104% | 99.1% | 105% | 100% | 107% | 114% | 109% | 103% | 110% | 108% | 108% | 109% | 104% | 104% | 104% | 99.3% | 106% |  | 100% | 101% | 108% | 106% | 100% | 113% | 105% | 90.7% | 101% | 106% | 108% | 87.5% | 102% | 114% | 111% | 103% | 
3 | CCC(C)(C)C(=O)O[C@H]1C[C@@H](C)C=C2C=C[C@H](C)[C@H](CC[C@@H]3C[C@@H](O)CC(=O)O3)[C@H]21 [Simvastatin] (1000 nM) | 92.6% | 104% |  | 96.6% | 98.4% | 96.7% | 106% | 109% | 111% | 98.9% | 102% | 93.6% | 98.9% | 102% |  | 75% | 81.6% | 96.3% | 92.9% | 81.5% | 102% |  | 97.2% | 78.2% | 102% | 111% | 93.2% | 100% | 95.7% | 94.5% | 106% | 106% | 94.2% | 86.9% | 115% | 77.5% | 
4 | N#CCNC(=O)c1ccc(-c2ccnc(Nc3ccc(N4CCOCC4)cc3)n2)cc1 [Momelotinib] (1000 nM) | 107% | 85% | 90.5% | 92.7% | 108% | 75.8% | 86.6% | 122% | 77% | 93.4% | 110% | 89.6% | 96.9% | 113% | 82.5% | 77.1% | 77.2% | 91.7% | 93% | 111% | 98.7% | 97.7% | 89.6% |  | 102% | 117% | 108% | 99.5% | 95.9% | 96.5% | 103% | 108% | 101% | 100% | 113% | 99.4% | 178%
5 | CC(=O)Nc1ccc(C(=O)Nc2ccccc2N)cc1 [Tacedinaline] (100 nM) | 100% | 97.2% | 93.6% | 101% | 102% | 99.2% | 95.4% | 114% | 93.7% | 106% | 126% | 106% | 102% | 102% | 109% | 105% | 102% | 97.1% | 98.4% | 76.9% | 105% | 99.2% | 107% | 115% | 101% | 103% |  | 101% | 97.4% | 117% | 110% | 105% | 99.1% | 108% | 110% | 92.4% | 
6 | C[C@@H](Oc1cc(-c2cnn(C3CCNCC3)c2)cnc1N)c1c(Cl)ccc(F)c1Cl [Crizotinib] (100 nM) | 98.8% | 95.6% | 99.2% | 116% | 98.5% | 100% | 92.4% | 104% | 107% | 97.1% | 114% | 90.4% | 102% | 91.7% | 96.1% | 102% | 98.6% | 100% | 99.7% | 95.8% | 106% | 105% | 93.4% | 79.2% | 104% | 111% | 105% | 99.2% | 104% | 140% | 80.2% | 90.9% | 104% | 123% | 114% |  | 122%
7 | O=C(O)c1ccc(-c2c[nH]c3ncc(-c4ccccc4)cc23)cc1C1CCCC1 (1 nM) | 93.7% | 96.5% | 97.3% | 98.4% | 91.1% | 94.8% | 89.6% | 125% | 89.7% | 94.5% | 83.8% | 103% | 92.8% | 99.3% | 92.9% | 95.4% | 94.2% | 97.5% | 98.3% |  |  |  |  |  |  |  |  |  |  |  |  |  |  |  |  |  | 
8 | CS(=O)(=O)c1ccc(C2=C(c3ccccc3)C(=O)OC2)cc1 [Rofecoxib] (1 nM) | 101% | 108% | 106% | 98.4% | 107% | 98.6% | 112% | 69.4% | 114% | 111% | 99.1% | 106% | 103% | 98.5% | 108% | 103% | 104% | 110% | 104% |  |  |  |  |  |  |  |  |  |  |  |  |  |  |  |  |  | 
9 | O=C(O)c1ccc(-c2c[nH]c3ncc(-c4ccccc4)cc23)cc1C1CCCC1 (1000 nM) | 105% | 95.6% | 91.4% | 99.2% | 97% | 102% | 90.2% | 105% | 100% | 95.6% | 102% | 100% | 103% | 96.8% | 93.6% | 89.9% | 92.4% | 101% | 94.1% | 109% |  | 96.3% | 108% | 100% | 98.4% | 93.6% | 103% | 93.1% | 90.9% | 92.9% | 85.1% | 96.7% | 95.8% | 86.1% | 96.2% | 92.2% | 
10 | O=P1(NCCCl)OCCCN1CCCl (configuration not stated) [Ifosfamide] (10 nM) | 98% | 86.1% | 92.5% | 100% | 95.8% | 93.2% | 94.9% | 118% | 96.1% | 89.1% | 89.3% | 95.9% | 94% | 87.7% | 91.6% | 96.8% | 101% | 98.1% | 102% |  |  |  |  |  |  |  |  |  |  |  |  |  |  |  |  |  | 
11 | C[C@@H](Oc1cc(-c2cnn(C3CCNCC3)c2)cnc1N)c1c(Cl)ccc(F)c1Cl [Crizotinib] (0.1 nM) | 96.7% | 102% | 106% | 92.6% | 100% | 102% | 81.6% | 82.4% | 95.6% | 103% | 82% | 104% | 96.7% | 111% | 91.7% | 101% | 102% | 99.3% | 96.2% |  |  |  |  |  |  |  |  |  |  |  |  |  |  |  |  |  | 
